Here are results for 5 compounds from patent publication US20080261811A1, “Synergistic Mixtures Exhibiting Insecticidal and Fungicidal Action” (Bayer CropScience AG, priority 2004, published 2008).

One assay deals with Phaedon cochleariae. The experiment in a line: Phaedon cochleariae larvae test (cabbage leaf dip). The format is in vivo. The settings on record: for Kill in % after 6 days: Table B2; for Kill in % after 4 days: Table B1. From the text:
(§1) The expected activity for a given combination of two active compounds can be calculated (cf. COLBY, S. R.; “Calculating Synergistic and Antagonistic Responses of Herbicide Combinations”, Weeds 15, pages 20-22, 1967):
(§2) if • X=the kill rate, expressed in % of the untreated control, when employing active compound A at an application rate of m ppm, • Y=the kill rate, expressed in % of the untreated control, when employing active compound B at an application rate of n ppm, • E=the kill rate, expressed in % of the untreated control, when employing active compounds A and B at application rates of m and n ppm, then
(§3) If the actual insecticidal kill rate is higher than the calculated one, the kill rates of the combination are superadditive, i.e. a synergistic effect is present. In this case, the kill rate that is actually observed has to be higher than the value, calculated using the formula above, for the expected kill rate (E).
(§4) To produce a suitable preparation of active compound, 1 part by weight of active compound is mixed with the stated amounts of solvent and emulsifier, and the concentrate is diluted with emulsifier-containing water to the desired concentration.
Cabbage leaves (Brassica oleracea) are treated by being dipped into the preparation of active compound of the desired concentration and populated with larvae of the mustard beetle (Phaedon cochleariae) while the leaves are still moist.
After the desired period of time, the kill in % is determined. 100% means that all beetle larvae have been killed; 0% means that none of the beetle larvae have been killed. The determined kill rates are entered into Colby's formula.

For the next assay, the system named is Myzus persicae. The experiment in a line: Myzus persicae test (cabbage leaf dip). The format is in vivo. Conditions: for Kill in % after 6 days: Table A2; for Kill in % after 1 day: Table A1.
Description: as §1, §2, §3, §4
Cabbage leaves (Brassica oleracea) which are heavily infested by the green peach aphid (Myzus persicae) are treated by being dipped into the preparation of active compound of the desired concentration.
After the desired period of time, the kill in % is determined. 100% means that all aphids have been killed; 0% means that none of the aphids have been killed. The determined kill rates are entered into Colby's formula.

Molecules are shown by their SMILES.

For the compound `COC(=O)[C@@H](C)N(C(=O)Cc1ccccc1)c1c(C)cccc1C` [benalaxyl M, methyl N-(phenylacetyl)-N-(2,6-xylyl)-D-alaninate], the “Kill in % after 6 days” value with Phaedon cochleariae (500 ppm) and in the assay with Myzus persicae (500 ppm) was 0% each time.

As to `COC(=O)C(C)N(C(=O)Cc1ccccc1)c1c(C)cccc1C` (stereo not shown) [benalaxyl], in the assay on Phaedon cochleariae (500 ppm), the “Kill in % after 6 days” value is 0%.

Consider `CN/C(=N\[N+](=O)[O-])NCc1cnc(Cl)s1` [clothianidin], for which, in the assay on Phaedon cochleariae (4 ppm), the “Kill in % after 4 days” value was 40% and the “Kill in % after 6 days” value came to 60%. Besides, in the assay with Myzus persicae (0.8 ppm), the “Kill in % after 1 day” value worked out at 45% and the “Kill in % after 6 days” value stood at 35%.

On to `COCC(=O)N(c1c(C)cccc1C)[C@H](C)C(=O)OC` [metalaxyl M], for which the “Kill in % after 4 days” value in the assay on Phaedon cochleariae (500 ppm) is 0%. For the same compound, the “Kill in % after 1 day” value with Myzus persicae (500 ppm) was 0%.

`COCC(=O)N(c1c(C)cccc1C)C(C)C(=O)OC` (stereo not shown) [metalaxyl]: in the assay on Myzus persicae (500 ppm), the “Kill in % after 1 day” value turned out to be 0%.
